Results taken from patent EP0443996B1, “Esters of (R)(-)-carnitine and acyl (R)(-)-carnitines with beta-hydroxybutyric acid and pharmaceutical compositions containing them for inhibiting neuronal degeneration, liver proteolysis and for the treatment of coma” (Sigma-Tau Industrie Farmaceutiche Riunite S.p.A., priority 1990, dated 1991).

Assays:
[1] = tested on: acetaminophen (paracetamol)-induced hepatic damage; assay: Protection against acetaminophen (paracetamol)-induced hepatic damage, serum transaminases; type: in vivo, Male Wistar rats; conditions: SGOT and SGPT in blood serum; 101 mg/kg body weight orally 1, 8 and 24 hours after paracetamol 1 g/kg per os; sacrifice at 32 hours; with respect to the control animals
Experimental: Male Wistar rats weighing 200-250 g (15 rats/group) that had been keept fasting for at least 12 hours, were administered a single dose of paracetamol (1 g/kg body weight, per os). 100 g paracetamol were dissolved in 1000 ml of 5% (w/v) carboxymethylcellulose suspension in water. […] 101 mg ST 784/kg body weight were administered orally (as aqueous solution) 1, 8 and 24 hours, respectively, following paracetamol administration. The animals were sacrificed 32 hours following paracetamol administration.
Transaminases (SGOT and SGPT) were measured in blood serum. ST 784 provoked a decrease in transaminases exceding 60% ([…]) with respect to the control animals.

post-oligaemic rats [2] = assay: Cerebral oedema upon brain excision 77 hours post-oligohaemia; type: in vivo, Sprague-Dawley (Iffa Credo) male rats; conditions: survivors
Experimental: (§1) The study was conducted with a view to assessing the therapeutical effect of ST 687 administered i.p. to rats immediately after the effect of a transient forebrain oligohaemia in the experiment animals were detected. In particular, the propensity of post-oligaemic rats to develop conditioning was studied in a one-trial passive avoidance task. Concurrently, the neurologic deficit during a 3-day period following the ischaemic insult was assessed, and finally the extent of the oedema was assessed by measuring the water content of the cerebral tissue.
(§2) In the experiments Sprague-Dawley (Iffa Credo) male rats weighing 230-250 g were used, that had been caged (5 rats/cage) under conditions of controlled temperature (22°C±1°C), 50% relative humidity and 12-hours dark-light cycle (light on from 8 a.m. to 8 p.m.). The rats were fed UAR (Epinay Orge, France) laboratory chow and had free access to tap water. The rats were caged for 5 days before surgery.
(§3) Under light ether anesthesia, carotid arteries were isolated and loosely surrounded by a thread. Twenty-four hours later, reversible incomplete forebrain ischemia was produced by bilateral common carotid artery occlusion combined with sodium nitroprusside-induced arterial hypotension (1.1 mg/rat s.c.). Mean arterial blood pressure (MABP) was lowered and maintained nearby 6.6 kPa for 45 min. Then it gruadually returned to normal within the 60th minute when carotid occlusion was removed.
Immediately after the last retention trial, i.e. 77 hours post-oligohaemia, rats were sacrificed by decapitation, their brains rapidly removed and macroscopically examined in terms of swelling. Brain water content was determined by the method wet weight/dry weight.

post-oligaemic rats [3] = assay: One-trial passive avoidance task (retention of conditioned response); type: in vivo, Sprague-Dawley (Iffa Credo) male rats
Experimental: as §1, §2, §3
The functional aspects of the cerebral ischemic injury were assessed by a one trial learning procedure (passive avoidance reaction) as originally described by Kurtz K. H. e Pearl J.: The effects of prior fear experience in acquired drive learning. J. Comp. Physiol, Psychol, 1960, 53 : 201-206, and more extensively developed by Buresova et al.: Effect of atropine on learning, extinction, retention and retrieval in rats. Psychopharmacologia, 1964, 5 : 255-263.
Four hours after clipping-off untreated post-oligaemic rats were placed into an apparatus consisting of a large illuminated compartment (40 x 40 cm) connected by an opening to a small dark compartment (10 x 10 cm) with an electrified grid floor. The animals placed into the large compartment were allowed to explore the apparatus for three minutes. The latency to enter and the time spent in the small compartment were measured with a stop watch. Habituation to the experimental conditions was repeated 24 and 29 hours after ischemia. At the end of the third habituation trial, the opening between the two compartments was closed and the rat, placed into the small compartment, received intermittent electrical foot-shocks for one minute. The retention of the passive avoidance towards the small compartment was tested 24 and 48 hours after the last habituation trial i.e. 53 and 77 hours post-oligohaemia, respectively. The criterion used to determine whether an animal was conditioned was based upon the rat remaining in the large illuminated compartment for 180 sec. without entry into the small dark compartment.

post-oligaemic rats [4] = assay: Death rate after transient forebrain oligohaemia; type: in vivo, Sprague-Dawley (Iffa Credo) male rats
Experimental: as §1, §2, §3

## CC(CC(=O)O)OC(=O)CC(O)C[N+](C)(C)C (racemic) [ST 784, ester of R(-)-carnitine chloride with R,S(±)beta-hydroxybutyric acid]
[1]
  decrease in transaminases: > 60%

## CC(=O)O[C@H](CC(=O)[O-])C[N+](C)(C)C [Acetyl (R)(-)-carni-tine, acetyl (R)(-)-carnitine, reference compound]
post-oligaemic rats [2]; 12,5 mg. kg i.p. twice a day
  Incidence of cerebral oedema upon excision (3): 80,0
post-oligaemic rats [2]; 25,0 mg. kg i.p. twice a day
  Incidence of cerebral oedema upon excision (3): 60,0
post-oligaemic rats [2]; 50,0 mg. kg i.p. twice a day
  Incidence of cerebral oedema upon excision (3): 90,0
post-oligaemic rats [3]; 12,5 mg. kg i.p. twice a day, + 53 h
  Incidence of retention of conditioned response (%): 80,0%
post-oligaemic rats [3]; 12,5 mg. kg i.p. twice a day, + 77 h
  Incidence of retention of conditioned response (%): 80,0%
post-oligaemic rats [3]; 25,0 mg. kg i.p. twice a day, + 53 h
  Incidence of retention of conditioned response (%): 60,0%
post-oligaemic rats [3]; 25,0 mg. kg i.p. twice a day, + 77 h
  Incidence of retention of conditioned response (%): 70,0%
post-oligaemic rats [3]; 50,0 mg. kg i.p. twice a day, + 53 h
  Incidence of retention of conditioned response (%): 70,0%
post-oligaemic rats [3]; 50,0 mg. kg i.p. twice a day, + 77 h
  Incidence of retention of conditioned response (%): 50,0%
post-oligaemic rats [4]; 12,5 mg. kg i.p. twice a day
  Death rate after 72 hours (%): 33,3%
post-oligaemic rats [4]; 25,0 mg. kg i.p. twice a day
  Death rate after 72 hours (%): 41,2%
post-oligaemic rats [4]; 50,0 mg. kg i.p. twice a day
  Death rate after 72 hours (%): 50,0%

## ester of isovaleryl (R)(-)-carnitine chloride with (R,S)(±)-beta-hydroxybutyric acid [ST 687]
post-oligaemic rats [2]; 2,5 mg. kg i.p. twice a day
  Incidence of cerebral oedema upon excision (3): 80,0
post-oligaemic rats [2]; 5,0 mg. kg i.p. twice a day
  Incidence of cerebral oedema upon excision (3): 50,0
post-oligaemic rats [2]; 7,5 mg. kg i.p. twice a day
  Incidence of cerebral oedema upon excision (3): 66,7
post-oligaemic rats [3]; 2,5 mg. kg i.p. twice a day, + 53 h
  Incidence of retention of conditioned response (%): 20,0%
post-oligaemic rats [3]; 2,5 mg. kg i.p. twice a day, + 77 h
  Incidence of retention of conditioned response (%): 40,0%
post-oligaemic rats [3]; 5,0 mg. kg i.p. twice a day, + 53 h
  Incidence of retention of conditioned response (%): 60,0%
post-oligaemic rats [3]; 5,0 mg. kg i.p. twice a day, + 77 h
  Incidence of retention of conditioned response (%): 60,0%
post-oligaemic rats [3]; 7,5 mg. kg i.p. twice a day, + 53 h
  Incidence of retention of conditioned response (%): 53,3%
post-oligaemic rats [3]; 7,5 mg. kg i.p. twice a day, + 77 h
  Incidence of retention of conditioned response (%): 66,7%
post-oligaemic rats [4]; 2,5 mg. kg i.p. twice a day
  Death rate after 72 hours (%): 47,4%
post-oligaemic rats [4]; 5,0 mg. kg i.p. twice a day
  Death rate after 72 hours (%): 37,5%
post-oligaemic rats [4]; 7,5 mg. kg i.p. twice a day
  Death rate after 72 hours (%): 62,5%
